Laboratory results as given in patent US9737525B2, “Small molecule activators of NRF2 pathway” (The General Hospital Corporation, priority 2013, dated 2017).

Assays:
[1] = test system: primary neurons from HD140CAG mice; assay: ROS detection assay in primary neurons; format: cell-based, mouse; conditions: 0.1 μM and 0.25 μM, 4 days
Protocol: Elevated levels of reactive oxygen species (ROS) have been implicated in normal brain aging and in the pathogenesis of numerous neurodegenerative diseases, including HD. The neuroprotective properties of NRF2 activation have been reported to boost antioxidant defenses in astrocytes, but in this study it was determined whether NRF2 induction mediates protective antioxidant activity in mutant Htt expressing primary neurons. It was determined whether NRF2 activation could reduce mHtt associated ROS in primary neurons isolated from embryonic brains (E15-E17) of HD140CAG mice, which display strikingly elevated ROS levels compared to cells derived from wild type mice. HD and wild type neurons were treated with MIND4-17 at 0.1 μM and 0.25 μM doses for 4 days, and ROS were measured.
ROS detection in primary neurons was performed as previously described by [Valencia, 2013]. Briefly, neurons were plated on glass coverslips pretreated with poly-L-lysine for 24 hours. At 4 DIV wild type and HDQ140 neurons were treated with compound MIND4-17 at 4 DIV, then ROS were measured in live cells at 8 DIV. Prior to ROS measurements, neurons were loaded with […] of the non-fluorescent ROS-detector carboxy-DCFDA-AM (Invitrogen) for 15 min at 37° C. […] Images were acquired through a 60× oil immersion Nikon Apo objective DIC H (NA 1/4 1.4) and quantified using ImageJ software (NIH).

[2] = test system: primary microglia; assay: IL-6 release from primary microglia of wild type and YAC128 mice (ELISA); format: cell-based, mouse; conditions: CSE and INF-γ stimulated wild type and YAC128 microglia
Protocol: Whole brains were obtained from post-natal 1 to 3 day old wild type and YAC128 mouse pups on the FVB/N strain background and placed in Hanks Balanced Salt Solution (HBSS; Invitrogen) on ice. Meninges were removed and the remaining brain tissue was placed into growth medium (DMEM [Invitrogen], 10% FBS [PAA], 1% L-glutamine [Invitrogen], 1% penicillin/streptomycin [Invitrogen]), and homogenized using a 5 ml pipette. Cells of each brain were pelleted, re-suspended in growth medium and transferred into a T150 flask, cultured at 37° C. with 5% CO2. Growth medium was replaced after 24 hr and then every 7 days. After 18 to 21 days in culture, loosely attached microglia were harvested and seeded at 1.4×10^5 cells/ml with pre-incubated conditioned media into 96-well PRIMARIA™ tissue culture plates (BD Falcon). Adherent astrocytes were plated at 1.4×10^5 cells/ml in 10% FBS media for 24 hr in 96-well PRIMARIA™ tissue culture plates. After the initial isolation microglia and astrocytes were seeded at a density of 1.4×10^5 cells/ml into 96-well PRIMARIA™ tissue culture plates. […] Cells were lysed and total protein levels were determined using the microBCA kit (Thermo Scientific). Supernatants were analyzed using mouse IL-6 ELISA (e-Biocience) and IL-6 levels were normalized to total protein levels.

[3] = test system: primary human monocytes; assay: Cytokine production by primary monocytes from HD patients and controls; format: cell-based; parameters: Levels of IL-1, IL-6, IL-8 and TNFα: dose or concentration left out as unconfirmed
Protocol: Blood samples were obtained from control subjects and genetically-diagnosed, symptomatic HD patients. Patients were classed as having early or moderate-stage disease using the total functional capacity (TFC) scale (13-7, early; 6-3, moderate) [Marder, 2000]. Subjects with inflammatory or infective conditions were excluded. Cells were isolated from whole blood, as previously described [Björkqvist, 2008]. In brief, 50 ml whole blood was collected in heparin (CP Pharmaceuticals) and leukocytes were isolated by density gradient centrifugation. Monocytes were sorted via magnetic cell separation columns using anti-CD14 microbeads (Miltenyi Biotec). Monocytes were seeded at 1×10^5 cells per well in 96-well PRIMARIA™ tissue culture plates (BD Falcon) with R10 media (RPMI culture medium supplemented with 10% FCS, 2 mM L-glutamine, 50 U/ml penicillin and […] streptomycin (Invitrogen)). […] Supernatants were analyzed using the human pro-inflammatory II (4-plex) MSD assay measuring IL-1b, IL-6, IL-8 and TNFα. […] Cell death was measured using a LDH assay (CytoTox-Fluor™ Cytotoxicity Assay from Promega). Normalized cytokine levels have been analyzed on the logarithmic scale due to their skewed distribution. […] Contrasts of interest were then calculated using linear combinations of parameter estimates.

Q: Which results are given for `O=[N+]([O-])c1ccc(Sc2nnc(COc3ccccc3)n2-c2ccccc2)nc1` [MIND4-17]?
A: Basal ROS levels in wild type neurons [1]: No effects on basal ROS levels were detected; ROS levels in HD neurons [1]: significant reduction of ROS; IL-6 secretion [2]: reduced the amount of IL-6 secreted; Levels of IL-1, IL-6, IL-8 and TNFα ([3]; HD patient cells): significant decrease in the levels of all four cytokines; IL-1, IL-6, IL-8 and TNFα production ([3]; monocytes from HD patients and normal subjects, LPS and IFN-g stimulation, different doses): reduced IL-1, IL-6, IL-8, and TNFα production
